Measurements: patent US20190247405A1, “TREATMENT OF SMA” (Hoffmann-La Roche Inc., priority 2016, published 2019)
Entries after “also recorded” stand apart in the source; their conditions may differ.

Assays:
[1] = tested on: MFM D1+D2 score in SMA patients; test: Longitudinal kinetic-pharmacodynamic (KPD) exposure-response analysis and simulations on Phase 2 PK and MFM D1+D2 data; design: species or system human
Source text: The pharmacokinetics (PK) and efficacy data from the herewith referred clinical trial study were used to investigate the relationship between olesoxime pharmacokinetic exposure (i.e., average trough concentration Caverage) and the primary efficacy outcome (i.e.: MFM D1+D2 score). A longitudinal kinetic-pharmacodynamic (KPD) approach was applied [Jacqmin et al., 2007]. In the placebo group the progression of the disease over time was best described by a linear function (slope of −0.0201 unit/week with relative standard error of 27%). […] (Data on file).
Simulations were conducted by using this exposure-response function and its associated uncertainty.

[2] = tested on: SMNF7/F7; NSE-Cre mice (SMA transgenic mice); test: Survival and body weight in transgenic mouse model of SMA; assay type: in vivo; conditions: for mice still alive at 40 days: Conclusion section (vehicle 15%); for animals still alive after 40 days: Results section (vehicle 15%)
Source text: Deletion of the smn gene is lethal in mice (early embryonic lethality). Mutant mice with deletion of smn exon7 restricted to neurons (NSE-Cre; SMNF7/F7, referred to here as SMA transgenic mice) are viable and display a phenotype similar to that described in human patients suffering from the severe types of spinal muscular atrophy (Frugier T., Tiziano F D et al. Hum Mol Genet. 2000, 9, 849-858.)
A pre-clinical study has been carried out on transgenic mouse model of SMA in the severe modelSMN^F7/F7; NSE-Cre with Olesoxime to test for signs of possible efficacy to treats SMA patients.
Endpoint scores included survival (daily observation), body weight (animals were weighed 3 times/week).
Olesoxime (powder) was mixed with Cremophore EL (SIGMA C5135), absolute ethanol (CARLO ERBA RPE 414571) and DMSO (ALLDRICH 27685-5) ([…], respective % of the final volume). After complete dissolution, PBS (phosphate buffered saline) was added (85% of the final volume). Solutions were prepared in volumes sufficient for 3 days; vehicle placebo consisted in the same mixture of excipients without the active principle. Daily treatment (subcutaneous injections, 10 ml/kg) started from P21 to death. Effected mice were killed by cervical dislocation when they became unable to feed, according to ethical considerations or around 45 days for control mice. Experiments were performed blind.
“log Rank”, also called “Mantel-Haenszel” was the statistic test being used to compare the two survival curves. It is a type “Khi2” test that was already available in the library “survival” from R. software (http://lib.stat.cmu.edu/R/CRAN).
The test was applied simultaneously on the 3 groups of mice and for all five stages.
All the mice which died before day 26 were removed from the study. There were 8 in total.

[3] = tested on: patients aged 3-25 years with type 2 or non-ambulatory type 3 SMA; test: Randomized, double-blind, placebo-controlled Phase 2 study (NCT01302600) of olesoxime; assay type: in vivo, human; conditions: 100 mg/ml oral liquid suspension, 10 mg/kg per day
Experimental: A randomized double blind, placebo-controlled, phase 2 study on olesoxime (NTC01302600) was performed on SMA type II and type III patients aged 3 to 25 years.
A randomized, double-blind, placebo-controlled, Phase 2 study (NCT01302600) was performed in 22 secondary care centres in Belgium, France, Germany, Italy, Netherlands, Poland and the UK. Safety and efficacy of olesoxime (TRO19622/RG6083) were assessed in patients aged 3-25 years with type 2 or non-ambulatory type 3 SMA confirmed by weakness and hypotonia, genetic diagnosis, Motor Function Measure (MFM) domains 1 and 2 (D1+D2) relative score (percentage of the maximum sum)≥15% and Hammersmith Functional Motor Scale (HFMS) score at baseline≥3 (non-ambulant≤38). […]
MFM is a validated quantitative scale allowing measurement of the functional motor abilities of an individual affected by a neuromuscular disease, regardless of the diagnosis and the extent of motor deficiencies (Vuillerot et al. Arch Phys Med Rehabil 2013; 94(8): 1555-61). […] Each item is scored on a 4-point (0-3) Likert type scale, where each option contains a clear indication of the level to which the patient has achieved the functional task and higher scores reflect better functional ability. […]
A total score, in addition to the three dimensions, can be calculated, with all scores expressed as a percentage of the maximum possible sum of the item scores. […]

## CC(C)CCC[C@@H](C)[C@H]1CC[C@H]2[C@@H]3CCC4=CC(=NO)CC[C@]4(C)[C@H]3CC[C@]12C [olesoxime, Cholest-4-en-3-one oxime]
[1]; KPD model, relative standard error of 36%
  slope of linear exposure-response relationship (average trough concentration vs MFM D1+D2 score): 0.291 unit/ng/mL
[1]; at the dose of 10 mg
  plateau of effect in exposure-response relationship: did not reach a plateau
[2]; 10 mg/kg daily s.c.
  mice still alive at 40 days: 26%
  animals still alive after 40 days: 25%
[2]; 30 mg/kg daily s.c.
  mice still alive at 40 days: 50%
  animals still alive after 40 days: 45%
[2]; 30 mg/kg/day s.c. from day 21 to death, log rank test p<0.05 vs vehicle
  life span / survival: significant increase in life span; also recorded: longer life span; also recorded: Improves Survival
[2]; 10 or 30 mg/kg daily s.c. vs vehicle
  body weight: no difference in body weight
[3]; SMA type II and III patients
  motor function: demonstrated potential to maintain motor function
[3]; SMA type II and III patients aged 3 to 25 years
  tolerability: well tolerated
